Experimental data as given in patent US20230085307A1, “PYRIDAZINONE COMPOUND AND HERBICIDE” (NISSAN CHEMICAL CORPORATION, priority 2019, published 2023).

Tests used:
persian speedwell = assay: Test Example 4: herbicidal effect by soil treatment (Table 19, symbol R); assay type: in vivo, Persian speedwell (Veronica persica); settings: amount of applied herbicide 320 g/ha
In short: (§1)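 Seeds were sown in sterilized diluvial soil and covered with about 1.5 cm of soil. An emulsion formulation diluted with water to a predetermined herbicide amount was sprayed evenly onto the soil surface. Plants grew in a greenhouse at 25° C. to 30° C., and the effect was scored three weeks after application using criteria from an earlier test.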

late watergrass [1] = assay: Test Example 1: herbicidal activity, application before weed generation under submerged conditions (Table 16, symbol A); assay type: in vivo, late watergrass (Echinochloa oryzicola); settings: 320 g/ha applied herbicide
In short: (§2)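 Emulsion formulation, water-diluted to set dose, was put onto the flooded surface (4 cm depth, alluvial soil) the same day weeds were sown and 2.5-leaf rice transplanted. After 3 weeks at 25-30 °C under glass, each species was rated 0 (≤5% kill) to 5 (≥90% kill).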

barnyard grass [2] = assay: Test Example 4: herbicidal effect by soil treatment (Table 19, symbol H); assay type: in vivo, barnyard grass (Echinochloa crus-galli); settings: amount of applied herbicide 320 g/ha
In short: as §1

Japanese bulrush [3] = assay: Test Example 1: herbicidal activity, application before weed generation under submerged conditions (Table 16, symbol B); assay type: in vivo, Japanese bulrush (Schoenoplectus juncoides); settings: 320 g/ha applied herbicide
In short: as §2

wild oat = assay: Test Example 4: herbicidal effect by soil treatment (Table 19, symbol I); assay type: in vivo, wild oat (Avena fatua); settings: amount of applied herbicide 320 g/ha
In short: as §1

southern crabgrass = assay: Test Example 4: herbicidal effect by soil treatment (Table 19, symbol F); assay type: in vivo, southern crabgrass (Digitaria ciliaris); settings: amount of applied herbicide 320 g/ha
In short: as §1

Japanese bulrush [4] = assay: Test Example 2: herbicidal activity, application during weed generation under submerged conditions (Table 17, symbol B); assay type: in vivo, Japanese bulrush (Schoenoplectus juncoides); settings: AAH 320 g/ha; application during weed generation, submerged conditions
In short: (§3)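 Effect on each weed is rated three weeks post-treatment, using the same scoring criteria as the preceding test. Plants grow from mixed-sown seed in flooded alluvial soil (4 cm water) at 25° C. to 30° C., and are treated at one to two leaves with diluted emulsion dropped onto the water.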

late watergrass [5] = assay: Test Example 2: herbicidal activity, application during weed generation under submerged conditions (Table 17, symbol A); assay type: in vivo, late watergrass (Echinochloa oryzicola); settings: AAH 320 g/ha; application during weed generation, submerged conditions
In short: as §3

oval-leafed pondweed [6] = assay: Test Example 2: herbicidal activity, application during weed generation under submerged conditions (Table 17, symbol C); assay type: in vivo, oval-leafed pondweed (Monochoria vaginalis); settings: AAH 320 g/ha; application during weed generation, submerged conditions
In short: as §3

redroot pigweed = assay: Test Example 4: herbicidal effect by soil treatment (Table 19, symbol N); assay type: in vivo, redroot pigweed (Amaranthus retroflexus); settings: amount of applied herbicide 320 g/ha
In short: as §1

windgrass = assay: Test Example 4: herbicidal effect by soil treatment (Table 19, symbol L); assay type: in vivo, windgrass (Apera spica-venti); settings: amount of applied herbicide 320 g/ha
In short: as §1

barnyard grass [7] = assay: Test Example 3: herbicidal effect by foliage application, Wagner pot (Table 18, symbol H); assay type: in vivo, barnyard grass (Echinochloa crus-galli); settings: amount of applied herbicide 320 g/ha
In short: (§4)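 Plants were sown in alluvial soil held under 0.1–0.5 cm standing water and grown 14 days in a greenhouse at 25–30 °C. An emulsifiable formulation, water-diluted to the set dose, was then sprayed onto the foliage, and effects were scored three weeks later using previously defined criteria.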

rice flat sedge = assay: Test Example 3: herbicidal effect by foliage application, Wagner pot (Table 18, symbol E); assay type: in vivo, rice flat sedge (Cyperus iria); settings: amount of applied herbicide 320 g/ha
In short: as §4

Chinese sprangletop = assay: Test Example 3: herbicidal effect by foliage application, Wagner pot (Table 18, symbol D); assay type: in vivo, chinese sprangletop (Leptochloa chinensis); settings: amount of applied herbicide 320 g/ha
In short: as §4

lambsquarters = assay: Test Example 4: herbicidal effect by soil treatment (Table 19, symbol O); assay type: in vivo, lambsquarters (Chenopodium album); settings: amount of applied herbicide 320 g/ha
In short: as §1

green foxtail = assay: Test Example 4: herbicidal effect by soil treatment (Table 19, symbol G); assay type: in vivo, green foxtail (Setaria viridis); settings: amount of applied herbicide 320 g/ha
In short: as §1

velvetleaf = assay: Test Example 4: herbicidal effect by soil treatment (Table 19, symbol M); assay type: in vivo, velvetleaf (Abutilon theophrasti); settings: amount of applied herbicide 320 g/ha
In short: as §1

Italian ryegrass = assay: Test Example 4: herbicidal effect by soil treatment (Table 19, symbol K); assay type: in vivo, Italian ryegrass (Lolium multiflorum); settings: amount of applied herbicide 320 g/ha
In short: as §1

chickweed = assay: Test Example 4: herbicidal effect by soil treatment (Table 19, symbol P); assay type: in vivo, common chickweed (Stellaria media); settings: amount of applied herbicide 320 g/ha
In short: as §1

oval-leafed pondweed [8] = assay: Test Example 1: herbicidal activity, application before weed generation under submerged conditions (Table 16, symbol C); assay type: in vivo, oval-leafed pondweed (Monochoria vaginalis); settings: 320 g/ha applied herbicide
In short: as §2

blackgrass = assay: Test Example 4: herbicidal effect by soil treatment (Table 19, symbol J); assay type: in vivo, blackgrass (Alopecurus myosuroides); settings: amount of applied herbicide 320 g/ha
In short: as §1

Cc1nn(C)c(=O)c(-c2c(-c3ccc(F)c(Cl)c3)sc3ccc(F)cc23)c1O [2-352]
herbicidal effect, R: persian speedwell (persian speedwell): 4 (Herbicidal rate of 70% or more and less than 90%)
Herbicidal effect on A: late watergrass (grade 0-5) (late watergrass [1]): 3 (Herbicidal rate of 40% or more and less than 70%)
herbicidal effect, H: barnyard grass (barnyard grass [2]): 3 (Herbicidal rate of 40% or more and less than 70%)
Herbicidal effect on B: Japanese bulrush (grade 0-5) (Japanese bulrush [3]): 2 (Herbicidal rate of 20% or more and less than 40%)
herbicidal effect, I: wild oat (wild oat): 0 (Herbicidal rate of 5% or less (almost no effect))
herbicidal effect, F: southern crabgrass (southern crabgrass): 2 (Herbicidal rate of 20% or more and less than 40%)
herbicidal effect rating, B: Japanese bulrush (Japanese bulrush [4]): 2 (Herbicidal rate of 20% or more and less than 40%)
herbicidal effect rating, A: late watergrass (late watergrass [5]): 0 (Herbicidal rate of 5% or less (almost no effect))
herbicidal effect rating, C: oval-leafed pondweed (oval-leafed pondweed [6]): 0 (Herbicidal rate of 5% or less (almost no effect))
herbicidal effect, N: redroot pigweed (redroot pigweed): 5 (Herbicidal rate of 90% or more (almost completely withered))
herbicidal effect, L: windgrass (windgrass): 0 (Herbicidal rate of 5% or less (almost no effect))
herbicidal effect on H: barnyard grass (barnyard grass [7]): 5 (Herbicidal rate of 90% or more (almost completely withered))
herbicidal effect on E: rice flat sedge (rice flat sedge): 5 (Herbicidal rate of 90% or more (almost completely withered))
herbicidal effect on D: Chinese sprangletop (Chinese sprangletop): 5 (Herbicidal rate of 90% or more (almost completely withered))
herbicidal effect, O: lambsquarters (lambsquarters): 4 (Herbicidal rate of 70% or more and less than 90%)
herbicidal effect, G: green foxtail (green foxtail): 4 (Herbicidal rate of 70% or more and less than 90%)
herbicidal effect, M: velvetleaf (velvetleaf): 3 (Herbicidal rate of 40% or more and less than 70%)
herbicidal effect, K: Italian ryegrass (Italian ryegrass): 4 (Herbicidal rate of 70% or more and less than 90%)
herbicidal effect, P: chickweed (chickweed): 3 (Herbicidal rate of 40% or more and less than 70%)
Herbicidal effect on C: oval-leafed pondweed (grade 0-5) (oval-leafed pondweed [8]): 2 (Herbicidal rate of 20% or more and less than 40%)
herbicidal effect, J: blackgrass (blackgrass): 0 (Herbicidal rate of 5% or less (almost no effect))
